Measured values: ChEMBL document CHEMBL1212919, “An efficient approach to the discovery of potent inhibitors against glycosyltransferases” (J Med Chem, 2010)
Values belong to the compound of their own block, whether it stands above or below them.

Experiments:
[1] = Inhibition of alpha-(1,6)-fucosyltransferase after 60 mins by Lineweaver-Burke plot analysis
[2] = Inhibition of alpha-(1,3)-fucosyltransferase after 60 mins by Lineweaver-Burke plot analysis
[3] = molecular target: T1, CMP-N-acetylneuraminate-beta-1,4-galactoside alpha-2,3-sialyltransferase (Rattus norvegicus, UniProt Q02734); test: Inhibition of rat recombinant alpha 2,3-(N)-sialyltransferase 3
T1 sequence (Q02734 whole entry): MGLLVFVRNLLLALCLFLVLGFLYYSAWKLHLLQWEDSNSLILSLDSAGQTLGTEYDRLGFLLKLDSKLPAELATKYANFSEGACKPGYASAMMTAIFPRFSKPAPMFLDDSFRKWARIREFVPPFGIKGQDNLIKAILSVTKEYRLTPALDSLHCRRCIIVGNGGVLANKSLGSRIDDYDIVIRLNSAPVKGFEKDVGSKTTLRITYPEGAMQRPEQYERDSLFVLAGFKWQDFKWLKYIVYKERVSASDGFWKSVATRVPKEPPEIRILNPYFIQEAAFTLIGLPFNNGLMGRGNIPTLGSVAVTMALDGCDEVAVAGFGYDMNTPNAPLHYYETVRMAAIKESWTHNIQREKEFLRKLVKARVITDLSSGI

Description for Rattus norvegicus: Inhibition of rat recombinant alpha 2,6-(N)-sialyltransferase 1 by Lineweaver-Burke plot analysis

Ki [1]: 13.8 µM
Compound: CCCCCc1ccc(-c2cn(C[C@@H]3O[C@H](OP(=O)(O)OP(=O)(O)OC[C@H]4O[C@@H](n5cnc6c(=O)[nH]c(N)nc65)[C@H](O)[C@@H]4O)[C@@H](O)[C@H](O)[C@@H]3O)nn2)cc1

Ki [2]: 0.293 µM
Compound: C[C@]12CC[C@@H]3c4ccc(O)cc4CC[C@H]3[C@@H]1CC[C@@]2(O)c1cn(C[C@@H]2O[C@H](OP(=O)(O)OP(=O)(O)OC[C@H]3O[C@@H](n4cnc5c(=O)[nH]c(N)nc54)[C@H](O)[C@@H]3O)[C@@H](O)[C@H](O)[C@@H]2O)nn1

Km (Rattus norvegicus): 125 µM
IC50 [3]: 8.2 µM
Compound: C[C@]12CC[C@@H]3c4ccc(O)cc4CC[C@H]3[C@@H]1CC[C@@]2(O)c1cn(CC(=O)N[C@H]2[C@H]([C@H](O)[C@H](O)CO)O[C@](OP(=O)(O)OC[C@H]3O[C@@H](n4ccc(N)nc4=O)[C@H](O)[C@@H]3O)(C(=O)O)C[C@@H]2O)nn1
